“Also recorded” adds a separate entry of the source.
Experiments:
Format in all cases: cell-based, human
JEG-3 cells [1] = test: Proliferation, change in confluence 0-24 h (IncuCyte Zoom, HTTS); details: for minimal effective concentration: read-out: Prolif ↓, lowest concentration at which the mean response value exceeded the mean control value ± 2*SD (rough binning); for cellular proliferation relative to vehicle control (rough binning): after 24 h, in at least one concentration
Source text: (§1) JEG-3 human choriocarcinoma trophoblastic cells (American Type Culture Collection, VA, United States) were maintained in sterile-filtered Minimum Essential Media (MEM) supplemented with L-glutamine and phenol red (Thermo Fisher Scientific, MA, United States), 10% (v/v) heat-inactivated BenchMark Fetal Bovine Serum (Gemini Bio, CA, United States), 1% (v/v) sodium pyruvate (Thermo Fisher Scientific, MA, United States), and 1% (v/v) penicillin streptomycin (Sigma Aldrich, MO, United States). Cells were maintained in an incubator at 37°C with 5% CO2. JEG-3 cells were cultured in 10 cm tissue culture plates and cell passage numbers were recorded.
(§2) A total of 42 perfluoroalkyl substances (PFAS) were evaluated (Supplementary Table S1 contains source and purity). PFAS stock solutions were maintained in 100% methanol as previous work has shown certain PFAS degrade when stored in dimethyl sulfoxide (DMSO; [Gaballah et al., 2020]). […] The vehicle control group consisted of 97.5% media + 2.5% methanol to match the concentration of methanol in the media at the highest PFAS concentration tested (500 µM). Menadione (50–500 µM) was used as a positive control for cytotoxicity assessment. PFAS were de-identified and assigned random numbers to eliminate bias. Chemical exposure plate maps were designed so that all experimental conditions were tested in at least technical duplicates per plate. The outer edges of each plate received media alone and were excluded from all analyses to avoid edge effects. Each plate map included 14 technical replicates of the vehicle control group and 14 technical replicates of media only. Biological replicates were defined as separate 384 well plates tested on separate days using different cell passages. The experimental workflow is depicted in Supplementary Figure S1.
(§3) JEG-3 cells were counted using a Z2 Coulter Particle Counter (Beckman Coulter, CA, United States) and seeded at a density of 2,500 cells per well in black-walled, clear bottom 384 well plates (Corning, #3764) and allowed to adhere overnight. Approximately 24 h later, 384 well plates were imaged using an IncuCyte Zoom live cell imager (Essen BioScience Inc., MI, United States) to obtain baseline cellular confluence measurements prior to chemical dosing (0 h). Media was removed from wells and replaced with fresh media containing chemical treatments (exposure media) using a Viaflo liquid handling device (Integra Biosciences, NH, United States). Within 30 min of exposure media application, plates were again imaged for cellular confluence using the IncuCyte Zoom. Plates were incubated with exposure media for 24 h and then imaged again using the IncuCyte Zoom (24 h).
Plate well bottom images were evaluated using automated cell masking. The automated cell masking program was developed using IncuCyte Zoom base software. Cell masking parameters were defined using a training set of JEG-3 cell images obtained prior to conducting the experiments and following IncuCyte Zoom software recommendations. Briefly, the training images were obtained from cell culture plates with varying levels of JEG-3 cellular confluence (ranging from ∼15% confluent to ∼95% confluent). Parameters for the automated cell masking were first manually set by an experimenter for 3-6 images of low (∼15–30%), medium (∼30–70%), and high confluence (∼70% or greater). The training images were then evaluated by the automated masking program and manually checked to ensure the parameters were sufficiently strict to ignore background (e.g., blank space on the plate well bottom) but adequately sensitive to detect cell borders. The masking program was then implemented on the experimental plates to obtain a baseline cellular confluence measurement at 0 h and a second confluence measurement at 24 h. […]

JEG-3 cells [2] = test: Mitochondrial membrane potential, JC-10 assay (HTTS); details: for minimal effective concentration: read-out: MMP ↓, lowest concentration at which the mean response value exceeded the mean control value ± 2*SD (rough binning); for MMP relative to vehicle control (rough binning): after 24 h, in at least one concentration; for EC50: four-parameter fit, estimates meeting inclusion criteria
Source text: as §1, §2, §3
The JC-10 assay (Enzo Life Sciences, NY, United States) was used to evaluate mitochondrial membrane potential, the main bioenergetic parameter that regulates respiratory rate, ATP synthesis and reactive oxygen species generation. In cells with polarized mitochondrial membranes, the JC-10 dye localizes to the mitochondrial matrix and forms red fluorescent aggregates (540/590 nm). In cells with depolarized mitochondrial membranes, the JC-10 dye localizes in the cytoplasm and converts to a green fluorescent monomer (490/525 nm). Mitochondrial membrane potential was calculated as the ratio of the green and red fluorescence intensities within a well.
At the end of the 24 h exposure period, exposure media was removed from the plate. The plate wells were then washed with 1x phosphate buffered saline (1x PBS). After washing, the JC-10 reagent was suspended in fresh 1x PBS and 20 µl was added to each well at a final concentration of 20 μM (Enzo Life Sciences, NY, United States). The plate was incubated for 1 h at 37°C, and the fluorescence intensities at excitation/emission wavelengths of 490/525 nm and 540/590 nm were measured using a CLARIOstar (BMG Labtech, Offenburg, Germany) plate reader, respectively.
HTTS data were analyzed using a custom data analysis script in R v 1.2.5019 ([R Core Team, 2019]). […]

JEG-3 cells [3] = test: CellTiter-Glo luminescent cell viability assay (HTTS); details: for Viability ↓, lowest concentration at which the mean response value exceeded the mean control value ± 2*SD (rough binning): decrease; for cell viability relative to vehicle control (rough binning): after 24 h, in at least one concentration
Source text: as §1, §2, §3
In the same plate evaluated for mitochondrial membrane potential, cell viability measures were duplexed using the CellTiter-Glo (CTG) Luminescent Cell Viability Assay (Promega, WI, United States). CTG reagent was added to each well at a volume of 20 µl. The plate was left at room temperature to incubate for 5 min and then 20 µl from each well was transferred to a low-volume, round-bottom, white 384 well plate (Corning, NY, United States). The CTG reagent lyses cellular and mitochondrial membranes and binds to adenosine triphosphate (ATP) released by cells, which produces a luminescence signal. The intensity of the luminescence was considered a proxy measure for the number of live cells in a well. The luminescence intensities were measured using the CLARIOstar plate reader.
HTTS data were analyzed using a custom data analysis script in R v 1.2.5019 ([R Core Team, 2019]). Briefly, raw data points corresponding to the confluence measurements at 0 and 24 h, the fluorescence intensities corresponding to MMP, and the relative luminescence units (RLU) corresponding to cell viability were imported directly from Microsoft Excel into the R programming environment, RStudio. Separate plates run on separate days using different JEG-3 passages were considered as biologic replicates. […]

[4] = Homo sapiens, JEG-3, 24 h, read-out: Proliferation EC50 ± SD, JEG-3 cells, 24 h exposure, four-parameter fit, estimates meeting inclusion criteria
[5] = Homo sapiens, JEG-3, 24 h, read-out: Viability EC50 ± SD, JEG-3 cells, 24 h exposure, four-parameter fit, estimates meeting inclusion criteria
[6] = JEG-3 cells, 24 h exposure, four-parameter fit, estimates meeting inclusion criteria, read-out: Proliferation EC50 ± SD
[7] = JEG-3 cells, 24 h exposure, read-out: MMP EC50 ± SD
[8] = JEG-3 cells, 24 h exposure, four-parameter fit, estimates meeting inclusion criteria, read-out: Viability EC50 ± SD

| SMILES | minimal effective concentration (JEG-3 cells [1]; Homo sapiens, JEG-3, 24 h) | EC50 (JEG-3 cells [1]; [4]) | cellular proliferation relative to vehicle control (rough binning) (JEG-3 cells [1]) | minimal effective concentration (JEG-3 cells [2]; Homo sapiens, JEG-3, 24 h) | MMP relative to vehicle control (rough binning) (JEG-3 cells [2]) | EC50 (JEG-3 cells [3]; [5]) | EC50 (JEG-3 cells [1]; [6]) | EC50 (JEG-3 cells [2]; [7]) | EC50 (JEG-3 cells [3]; [8]) | Viability ↓, lowest concentration at which the mean response value exceeded the mean control value ± 2*SD (rough binning) (JEG-3 cells [3]; JEG-3 cells, 24 h) | cell viability relative to vehicle control (rough binning) (JEG-3 cells [3]) | also measured |
| --- | --- | --- | --- | --- | --- | --- | --- | --- | --- | --- | --- | --- |
| O=C(O)C(F)(F)OC(F)(F)C(F)(F)OC(F)(F)C(F)(F)OC(F)(F)F [Perfluoro-3,6,9-trioxadecanoic acid] | 350 µM | 303 ± 30.1 µM | reduced cellular proliferation | 450 µM | reduced MMP | 267 ± 26.8 µM |  |  |  |  |  |  |
| O=C(O)C(F)(F)C(F)(F)C(F)(F)C(F)(F)C(F)(F)C(F)(F)C(F)F [8-H-Perfluorooctanoic acid] |  |  |  |  |  |  | 441 ± 18.1 µM | 147 ± 27.1 µM | 318 ± 183 µM |  |  |  |
| O=P(O)(O)OCCC(F)(F)C(F)(F)C(F)(F)C(F)(F)C(F)(F)C(F)(F)F [6:2 Fluorotelomer phosphate monoester] |  |  |  |  |  |  | 193 ± 3.8 µM | 248 ± 62.1 µM | 183 ± 21.7 µM |  |  | EC50 (JEG-3 cells [1]; JEG-3 cells, 24 h, read-out: proliferation EC50 ± SE): 193 ± 4 µM; EC50 (JEG-3 cells [3]; JEG-3 cells, 24 h, read-out: viability EC50 ± SE): 183 ± 22 µM |
| O=P(O)(OCCC(F)(F)C(F)(F)C(F)(F)C(F)(F)C(F)(F)C(F)(F)C(F)(F)C(F)(F)F)OCCC(F)(F)C(F)(F)C(F)(F)C(F)(F)C(F)(F)C(F)(F)C(F)(F)C(F)(F)F [8:2 Fluorotelomer phosphate diester] |  |  | reduced cellular proliferation |  | reduced MMP |  |  |  |  | 50 µM | reduced cell viability | Prolif ↓, lowest concentration at which the mean response value exceeded the mean control value ± 2*SD (rough binning) (JEG-3 cells [1]; JEG-3 cells, 24 h, decrease): 100 µM; MMP ↓, lowest concentration at which the mean response value exceeded the mean control value ± 2*SD (rough binning) (JEG-3 cells [2]; JEG-3 cells, 24 h, decrease): 350 µM |
| O=C(O)C(F)(F)C(F)(F)C(F)(F)C(F)(F)C(F)(F)C(F)(F)C(F)(F)C(F)(F)C(F)(F)F [Perfluorodecanoic acid] | 250 µM | 234 ± 22.8 µM | reduced cellular proliferation | 50 µM | reduced MMP | 181 ± 25.6 µM |  |  |  | 200 µM | reduced cell viability; also recorded: increased cell viability | EC50 (JEG-3 cells [2]; Homo sapiens, JEG-3, 24 h, read-out: MMP EC50 ± SD, JEG-3 cells, 24 h exposure): 236 ± 160 µM; EC50 (JEG-3 cells [3]; Homo sapiens, JEG-3, 24 h, read-out: viability EC50 ± SE, JEG-3 cells, 24 h): 181 ± 26 µM; Viability ↑, lowest concentration at which the mean response value exceeded the mean control value ± 2*SD (rough binning) (JEG-3 cells [3]; JEG-3 cells, 24 h, increase): 50 µM |

Reference: publication PMC9081605, “A High-Throughput Toxicity Screen of 42 Per- and Polyfluoroalkyl Substances (PFAS) and Functional Assessment of Migration and Gene Expression in Human Placental Trophoblast Cells” (Frontiers in Toxicology, 2022)
